Measurements reported in patent US20250206724A1, “SUBSTITUTED 3-AMINO INDAZOLE DERIVATIVES AS KINASE INHIBITORS” (NERVIANO MEDICAL SCIENCES S.R.L., priority 2022, published 2025).
Counter-ions that a name gives are not always drawn.

target: T1, CDK11A (Homo sapiens, UniProt Q9UQ88); conditions: displacement of SNS-032-Atto590 probe (0.002 μM) from CDK11A-p58 (0.032 uM), fluorescence polarization
T1 sequence (Q9UQ88 346-783): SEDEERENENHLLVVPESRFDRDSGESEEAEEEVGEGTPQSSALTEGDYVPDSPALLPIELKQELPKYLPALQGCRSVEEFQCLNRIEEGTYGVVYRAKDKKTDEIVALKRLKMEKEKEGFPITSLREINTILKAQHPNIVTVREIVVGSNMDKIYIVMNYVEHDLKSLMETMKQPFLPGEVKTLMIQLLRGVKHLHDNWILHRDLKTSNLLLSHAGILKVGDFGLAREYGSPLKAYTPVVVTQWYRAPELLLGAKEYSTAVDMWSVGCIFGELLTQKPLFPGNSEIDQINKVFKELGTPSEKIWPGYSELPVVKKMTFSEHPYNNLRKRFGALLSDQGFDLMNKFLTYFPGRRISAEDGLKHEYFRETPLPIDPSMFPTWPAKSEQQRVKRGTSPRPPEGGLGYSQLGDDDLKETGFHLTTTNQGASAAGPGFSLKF
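Further: compound preincubated 30 min with CDK11A-p58, then probe added and polarization (mP) read 15 min later, 0% displacement is probe plus enzyme, 100% is probe alone.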

Row | SMILES | DC50 [µM]
1 | CCCN1CCC(C(=O)Nc2n[nH]c3ccc(-c4cc(C#N)ccc4Cl)cc23)CC1 [compound 141, N-[5-(2-Chloro-5-cyanophenyl)-1H-indazol-3-yl]-1-propylpiperidine-4-carboxamide hydrochloride] | 0.079
2 | N#Cc1ccc(Cl)c(-c2ccc3[nH]nc(NC(=O)C4CC(NC5CC5)C4)c3c2)c1 (stereo not drawn) [compound 155, N-[5-(2-Chloro-5-cyanophenyl)-1H-indazol-3-yl]-3-(cyclopropylamino)cyclobutanecarboxamide hydrochloride] | 0.053
3 | CN1CCC(C(=O)Nc2n[nH]c3ccc(-c4cccc(F)c4F)cc23)CC1 [cpd 99, N-[5-(2,3-Difluorophenyl)-1H-indazol-3-yl]-1-methylpiperidine-4-carboxamide hydrochloride] | 0.173
4 | CC(C)N1CCC(C(=O)Nc2n[nH]c3ccc(-c4cc(C#N)ccc4Cl)cc23)CC1 [compound 143, N-[5-(2-Chloro-5-cyanophenyl)-1H-indazol-3-yl]-1-(propan-2-yl)piperidine-4-carboxamide hydrochloride] | 0.089
5 | Cc1ccc(-c2ccc3[nH]nc(NC(=O)[C@@H]4CCCNC4)c3c2)c(C(F)(F)F)c1 [cpd 36, (3R)-N-{5-[4-Methyl-2-(trifluoromethyl)phenyl]-1H-indazol-3-yl}piperidine-3-carboxamide hydrochloride] | 0.065
6 | CN1CCC(C(=O)Nc2n[nH]c3ccc(-c4ccccc4C(F)(F)F)cc23)CC1 [cpd 104, 1-Methyl-N-{5-[2-(trifluoromethyl)phenyl]-1H-indazol-3-yl}piperidine-4-carboxamide hydrochloride] | 0.33
7 | CN1CCC(C(=O)Nc2n[nH]c3ccc(-c4cccc(F)c4)cc23)CC1 [cpd 101, N-[5-(3-Fluorophenyl)-1H-indazol-3-yl]-1-methylpiperidine-4-carboxamide hydrochloride] | 0.692
8 | COCCOc1ccc2[nH]nc(NC(=O)[C@@H]3CCCNC3)c2c1 [cpd 228, (3R)-N-[5-(2-Methoxyethoxy)-1H-indazol-3-yl]piperidine-3-carboxamide hydrochloride] | 0.406
9 | O=C(Nc1n[nH]c2ccc(OCCF)cc12)[C@@H]1CCCNC1 [cpd 227, (3R)-N-[5-(2-Fluoroethoxy)-1H-indazol-3-yl]piperidine-3-carboxamide hydrochloride] | 0.071
10 | O=C(Nc1n[nH]c2ccc(-c3c(Cl)cccc3Cl)cc12)[C@H]1CCNC1 [compound 168, (3S)-N-[5-(2,6-Dichlorophenyl)-1H-indazol-3-yl]pyrrolidine-3-carboxamide hydrochloride] | 0.098
11 | CC(=O)c1ccc(F)c(-c2ccc3[nH]nc(NC(=O)[C@@H]4CCCNC4)c3c2)c1 [cpd 19, (3R)-N-[5-(5-Acetyl-2-fluorophenyl)-1H-indazol-3-yl]piperidine-3-carboxamide hydrochloride] | 0.027
12 | CC(=O)c1ccc(F)c(-c2ccc3[nH]nc(NC(=O)C4CCCNC4)c3c2)c1 (stereo not drawn) [cpd 16, N-[5-(5-Acetyl-2-fluorophenyl)-1H-indazol-3-yl]piperidine-3-carboxamide hydrochloride] | 0.072
13 | N#Cc1ccc(Cl)c(-c2ccc3[nH]nc(NC(=O)[C@@H]4CCC5(CCCCC5)NC4)c3c2)c1 (single isomer, unassigned) [compound 207, (3-)-N-[5-(2-Chloro-5-cyanophenyl)-1H-indazol-3-yl]-1-azaspiro[5.5]undecane-3-carboxamide] | 0.229
14 | COc1ccc(-c2ccc3[nH]nc(NC(=O)[C@@H]4CCCNC4)c3c2)c(C(F)(F)F)c1 [cpd 31, (3R)-N-{5-[4-Methoxy-2-(trifluoromethyl)phenyl]-1H-indazol-3-yl}piperidine-3-carboxamide hydrochloride] | 0.094
15 | CN1CCC(C(=O)Nc2n[nH]c3ccc(-c4ccccc4)cc23)CC1 [cpd 93, 1-Methyl-N-(5-phenyl-1H-indazol-3-yl)piperidine-4-carboxamide hydrochloride] | 0.938
16 | O=C(CC1CCNCC1)Nc1n[nH]c2ccc(-c3c(Cl)cccc3Cl)cc12 [compound 163, N-[5-(2,6-Dichlorophenyl)-1H-indazol-3-yl]-2-(piperidin-4-yl)acetamide hydrochloride] | 0.576
17 | CN1CCC(C(=O)Nc2n[nH]c3ccc(-c4ccccc4Cl)cc23)CC1 [cpd 85, N-[5-(2-Chlorophenyl)-1H-indazol-3-yl]-1-methylpiperidine-4-carboxamide hydrochloride] | 0.393
18 | NC[C@H]1CC[C@H](C(=O)Nc2n[nH]c3ccc(-c4c(Cl)cccc4Cl)cc23)CC1 [compound 164, trans-4-(Aminomethyl)-N-[5-(2,6-dichlorophenyl)-1H-indazol-3-yl]cyclohexanecarboxamide hydrochloride] | 0.151

Now from value to molecule:

Row | DC50 [µM] | SMILES
19 | 0.695 | O=C(Nc1n[nH]c2ccc(-c3c(Cl)cccc3Cl)cc12)C1CCN(C2CC2)CC1 [compound 158, 1-Cyclopropyl-N-[5-(2,6-dichlorophenyl)-1H-indazol-3-yl]piperidine-4-carboxamide hydrochloride]
20 | 0.502 | Cc1ccc(Cl)c(-c2ccc3[nH]nc(NC(=O)C4CCN(C)CC4)c3c2)c1 [cpd 86, N-[5-(2-Chloro-5-methylphenyl)-1H-indazol-3-yl]-1-methylpiperidine-4-carboxamide hydrochloride]
21 | 0.643 | CN1CCC(C(=O)Nc2n[nH]c3ccc(-c4cccc(Cl)c4Cl)cc23)CC1 [cpd 97, N-[5-(2,3-Dichlorophenyl)-1H-indazol-3-yl]-1-methylpiperidine-4-carboxamide hydrochloride]
22 | 0.044 | CNC(=O)c1ccc(Cl)c(-c2ccc3[nH]nc(NC(=O)[C@@H]4CCNC4)c3c2)c1 [cpd 39, (3R)-N-{5-[2-Chloro-5-(methylcarbamoyl)phenyl]-1H-indazol-3-yl}pyrrolidine-3-carboxamide hydrochloride]
23 | 0.046 | O=C(Nc1n[nH]c2ccc(-c3cc(Cl)ccc3F)cc12)[C@@H]1CCCNC1 [cpd 21, (3R)-N-[5-(5-Chloro-2-fluorophenyl)-1H-indazol-3-yl]piperidine-3-carboxamide hydrochloride]
24 | 0.038 | O=C(Nc1n[nH]c2ccc(-c3ccccc3Cl)cc12)[C@@H]1CCCNC1 [cpd 47, (3R)-N-[5-(2-Chlorophenyl)-1H-indazol-3-yl]piperidine-3-carboxamide hydrochloride]
25 | 0.446 | CN1CCC(C(=O)Nc2n[nH]c3ccc(-c4cc(CO)ccc4Cl)cc23)CC1 [cpd 77, N-{5-[2-Chloro-5-(hydroxymethyl)phenyl]-1H-indazol-3-yl}-1-methylpiperidine-4-carboxamide p-toluensulfonate]
26 | 0.02 | CC(C)NC1CC(C(=O)Nc2n[nH]c3ccc(-c4cc(C#N)ccc4Cl)cc23)C1 (stereo not drawn) [compound 148, N-[5-(2-Chloro-5-cyanophenyl)-1H-indazol-3-yl]-3-(propan-2-ylamino)cyclobutanecarboxamide hydrochloride]
27 | 0.592 | CN1CCC(C(=O)Nc2n[nH]c3ccc(-c4cc(C(F)(F)F)ccc4Cl)cc23)CC1 [cpd 94, N-{5-[2-Chloro-5-(trifluoromethyl)phenyl]-1H-indazol-3-yl}-1-methylpiperidine-4-carboxamide hydrochloride]
28 | 0.073 | N#Cc1ccc(Cl)c(-c2ccc3[nH]nc(NC(=O)C4CCCCNC4)c3c2)c1 (stereo not drawn) [compound 183, N-[5-(2-Chloro-5-cyanophenyl)-1H-indazol-3-yl]azepane-3-carboxamide hydrochloride]
29 | 0.913 | CN1CCC(C(=O)Nc2n[nH]c3ccc(-c4cc(F)c(F)cc4F)cc23)CC1 [compound 126, 1-Methyl-N-[5-(2,4,5-trifluorophenyl)-1H-indazol-3-yl]piperidine-4-carboxamide hydrochloride]
30 | 0.156 | O=C(Nc1n[nH]c2ccc(-c3ccc(C(F)(F)F)cc3Cl)cc12)[C@@H]1CCCNC1 [cpd 44, (3R)-N-{5-[2-Chloro-4-(trifluoromethyl)phenyl]-1H-indazol-3-yl}piperidine-3-carboxamide hydrochloride]
31 | 0.049 | Nc1ccc(-c2ccc3[nH]nc(NC(=O)C4CCCNC4)c3c2)c(Cl)c1 (stereo not drawn) [cpd 1, N-[5-(4-Amino-2-chlorophenyl)-1H-indazol-3-yl]piperidine-3-carboxamide dihydrochloride]
32 | 0.2 | CN1CCC(C(=O)Nc2n[nH]c3ccc(-c4ccc(N)cc4Cl)cc23)CC1 [cpd 107, N-[5-(4-Amino-2-chlorophenyl)-1H-indazol-3-yl]-1-methylpiperidine-4-carboxamide dihydrochloride]
33 | 0.125 | CN1CCC(C(=O)Nc2n[nH]c3ccc(-c4c(F)ccc(C#N)c4F)cc23)CC1 [compound 134, N-[5-(3-Cyano-2,6-difluorophenyl)-1H-indazol-3-yl]-1-methylpiperidine-4-carboxamide]
34 | 0.035 | O=C(Nc1n[nH]c2ccc(-c3cc(F)ccc3F)cc12)[C@@H]1CCCNC1 [cpd 35, (3R)-N-[5-(2,5-Difluorophenyl)-1H-indazol-3-yl]piperidine-3-carboxamide hydrochloride]
35 | 0.088 | O=C(Nc1n[nH]c2ccc(-c3ccc(Cl)cc3C(F)(F)F)cc12)[C@@H]1CCCNC1 [cpd 45, (3R)-N-{5-[4-Chloro-2-(trifluoromethyl)phenyl]-1H-indazol-3-yl}piperidine-3-carboxamide hydrochloride]
36 | 0.135 | CC(C)(CO)CN1CCC(C(=O)Nc2n[nH]c3ccc(-c4c(Cl)cccc4Cl)cc23)CC1 [cpd 71, N-[5-(2,6-Dichlorophenyl)-1H-indazol-3-yl]-1-(3-hydroxy-2,2-dimethylpropyl)piperidine-4-carboxamide]
